What is called half-life is the time in which the quantity being followed falls by half. The IC50 is the concentration that inhibits the measured activity by half. The low end stands for greater potency, the high end for weaker potency.

A value given as a limit tells only on which side of the number the result lay.

Data set [1] can be described thus: Pharmacokinetic evaluation in dogs. To be noted: beagle dogs; for Vd/F / AUC(0-t) / CL/F / half-life / Cmax: male, dog, plasma; for Vd/F: read-out: Apparent distribution volume Vz/F; for AUC(0-t): read-out: Area under curve AUC0-t; for CL/F: read-out: Clearance CLz/F; for half-life: read-out: Half-life T½ (converted); for Cmax: read-out: Plasma concentration Cmax. Type of data set: in vivo. The method, then:
Dogs are the test animals. The drug concentrations in the plasma of dogs at different time points after intragastric (ig) administration/intravenous (iv) injection of the compounds of the present disclosure were determined by an LC/MS/MS method. The pharmacokinetic performance in beagles of the compounds of the present disclosure was studied and the pharmacokinetic profile thereof was evaluated.
Twelve beagle dogs, males, evenly divided into 4 groups, provided by the animal reserve bank (999M-004) of Shanghai Medicilon Inc. All animals were beagle dogs qualified for physical examination and healthy without abnormalities.
Intragastric administration: the dose was 2 mg/kg and the volume was 50.0 mL/kg.
Intravenous injection administration: the dose was 0.5 mg/kg and the volume was 20.0 mL/kg.
The blood was placed in an EDTA-K2 anticoagulation tube and centrifuged at 10,000 rpm for 5 min (4° C.), and plasma was separated out within 1 h and then stored at −80° C. before being tested. Food intake was resumed 3 h after administration.
The process from blood collection to centrifugation was performed under an ice bath.
The content of the test compounds at different concentrations in plasma of beagle dogs after the administration was determined: 10 μL of plasma of beagle dogs at each time point after the administration was mixed with 200 μL of acetonitrile (containing a solution of internal standard camptothecin (100 ng/mL)); the mixture was vortexed for 1 min, and centrifuged for 7 min (18,000 r/min), and 6 μL of supernatant was taken for LC/MS/MS analysis.

Data set [2] is described as follows: Pharmacokinetic evaluation in mice. Particulars: for AUC(0-t) / half-life / Vd/F / CL/F / Cmax: female, C57, mouse, plasma; for AUC(0-t): read-out: Area under curve AUC0-t; for half-life: read-out: Half-life T½ (converted); for Vd/F: read-out: Apparent distribution volume Vz/F; for CL/F: read-out: Clearance CLz/F; for Cmax: read-out: Plasma concentration Cmax. The data set is classed as in vivo, C57 mice. The method, then: The drug concentrations in the plasma of the test animals (mice) at different time points after intragastric (ig) administration/intravenous (iv) injection of the compounds of the present disclosure were determined by an LC/MS/MS method. The pharmacokinetic behavior of the compound of the present disclosure in mice was studied and its pharmacokinetic profile was evaluated.
Thirty-six C57 mice, female, evenly divided into 4 groups, purchased from Beijing Vital River Laboratory Animal Technology Co., Ltd., with animal production license number: SCXK (Shanghai) 2017-0005.
Intragastric administration: the drugs were intragastrically administered to mice at a dose of 2.0 mg/kg and a volume of 20.0 mL/kg.
Intravenous injection administration: the drugs were administered to mice by intravenous injection at a dose of 1.0 mg/kg and a volume of 10.0 mL/kg.
The blood was placed in an EDTA-K2 anticoagulation tube and centrifuged at 10,000 rpm for 1 min (4° C.), and plasma was separated out within 1 h and then stored at −80° C. before being tested. The process from blood collection to centrifugation was performed under an ice bath.
The content of the test compounds at different concentrations in plasma of mice after the administration was determined: 25 μL of plasma of mice at each time point after the administration was mixed with 200 μL of acetonitrile (containing 50 μL of a solution of internal standard camptothecin (100 ng/mL)); the mixture was vortexed for 1 min, and centrifuged for 10 min (4000 r/min), and 0.5 μL of supernatant was taken for LC/MS/MS analysis.

A further data set addresses CYP2C19 (Homo sapiens (Human), UniProt P33261). Nature of the data set: Time-dependent inhibition (TDI) of CYP2C19 (S)-mephenytoin site of metabolism in human liver microsomes. Particulars: for IC50: (S)-mephenytoin. The data set is classed as in vitro ADME. The method, then: I. Materials and Instruments • 1. Phosphate buffered saline (20×PBS, purchased from Sangon); • 2. NADPH (ACROS, A2646-71-1); • 3. Human liver microsome (Corning Gentest, Cat No. 452161, Lot No. 905002, Donor36); • 4. ABI QTrap 4000 LC-MS System (AB Sciex); • 5. ZORBAX Extend-C18, 3×50 mm, 3.5 μm (Agilent, USA); • 6. CYP probe substrate ((S)-mephenytoin/20 μM, powder purchased from J&K Scientific Ltd., Cat No. 303768) and positive control inhibitor (ticlopidine, powder purchased from SIGMA, Cat No. T6654-1G).
A 100 mM PBS buffer was prepared. A 15 mM MgCl2 solution and a 10 mM NADPH solution were prepared using the buffer. A 0.5 mg/mL microsome solution was prepared using the 15 mM MgCl2 solution. A 30 mM stock solution was diluted with DMSO to a series of solutions I with concentrations of 30 mM, 10 mM, 3 mM, 1 mM, 0.3 mM, 0.1 mM, 0.03 mM and 0 mM, which were then 10-fold diluted with acetonitrile (ACN) and finally 50-fold diluted with phosphate-buffered solution (PBS) to obtain a series of test working solutions II (60 μM, 20 μM, 6 μM, 2 μM, 0.6 μM, 0.2 μM, 0.06 μM and 0 μM). A 20 μM working solution of (S)-mephenytoin was prepared by dilution with PBS.
The above prepared series of working solutions were well shaken and divided into 50 μL aliquots in corresponding reaction plates (+NADPH group and −NADPH group were set) in triplicate. 20 μL of the liver microsome working solution was added to each 96-well plate. 10 μL of NADPH was added to +NADPH group. The plates were incubated in a water bath at 37° C., and a timer was set on the incubation. After 30 min of incubation, the plates were taken out, and +NADPH group was supplemented with 20 μL of corresponding substrate solutions and −NADPH group with 20 μL of corresponding substrate solutions and 10 μL of NADPH. The plates were incubated in a water bath at 37° C., and a timer was set on the incubation. After 30 min of incubation, the plates were taken out, and the reactions were terminated with 250 μL of an ACN solution containing an internal standard. The plates were shaken on a shaker at 800 rpm for 10 min and centrifuged on a centrifuge at 4000 rpm for 15 min. 100 μL of supernatant and 80 μL of ultrapure water were well mixed and subjected to LC-MS/MS analysis.
(Liver microsomes are a subcellular fraction often used to study metabolism.)

The mark [3] stands for this setting: intravenous injection, 0.5 mg/kg.
The mark [4] stands for this setting: po, intragastric administration, 2 mg/kg.
The mark [5] stands for this setting: 30 min pre-incubation with NADPH.
The mark [6] stands for this setting: 30 min pre-incubation without NADPH.

Sequence of CYP2C19 (P33261 whole entry): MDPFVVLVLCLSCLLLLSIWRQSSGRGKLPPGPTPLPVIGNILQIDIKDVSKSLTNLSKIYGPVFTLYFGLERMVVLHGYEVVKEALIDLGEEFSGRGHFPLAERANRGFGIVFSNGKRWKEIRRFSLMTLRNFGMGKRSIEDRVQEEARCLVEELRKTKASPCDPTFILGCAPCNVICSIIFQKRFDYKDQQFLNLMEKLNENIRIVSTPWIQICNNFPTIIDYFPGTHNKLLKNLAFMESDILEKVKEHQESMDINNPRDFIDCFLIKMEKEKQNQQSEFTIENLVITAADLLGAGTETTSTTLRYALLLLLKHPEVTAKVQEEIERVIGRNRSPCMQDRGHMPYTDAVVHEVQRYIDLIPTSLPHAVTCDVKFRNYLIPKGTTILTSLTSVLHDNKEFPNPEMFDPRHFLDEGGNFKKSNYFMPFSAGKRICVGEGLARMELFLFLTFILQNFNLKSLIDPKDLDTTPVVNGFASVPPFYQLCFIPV

For `O=C(O)c1ccc2nc(CN3CCC(c4cccc5c4O[C@@H](c4ccc(Cl)cc4F)CO5)CC3)n(C[C@@H]3CCO3)c2n1` [Example 5, 2-((4-((S)-3-(4-Chloro-2-fluorophenyl)-2,3-dihydrobenzo[b][1,4]dioxan-5-yl)piperidin-1-yl)methyl)-3-((S)-oxetan-2-ylmethyl)-3H-imidazo[4,5-b]pyridine-5-carboxylic acid], in data set [1] (setting [3]), the “Apparent distribution volume Vz/F” value is 0.448 L/kg, the “Clearance CLz/F” value was determined as 1.8 mL/min/kg, the AUC(0-t) came to 4830 ng·h/mL and the half-life is 3 h. For the same compound, in data set [1] (setting [3]), the Cmax came out at 1740 ng/mL. For the same compound, in data set [1] (setting [4]), the Vd/F came out at 0.636 L/kg, the AUC(0-t) was 22100 ng·h/mL, the CL/F came out at 1.7 mL/min/kg and the half-life is 4.9 h. For the same compound, the Cmax in data set [1] (setting [4]) worked out at 4430 ng/mL. In addition, in data set [2] (intravenous injection, 1 mg/kg), the AUC(0-t) is 2190 ng·h/mL, the half-life is 1.5 h, the “Apparent distribution volume Vz/F” value came to 0.981 L/kg and the “Clearance CLz/F” value is 7.55 mL/min/kg. In data set [2] (setting [4]), the Vd/F was 5.76 L/kg, the AUC(0-t) turned out to be 1440 ng·h/mL, the CL/F worked out at 23.1 mL/min/kg and the half-life is 2.9 h. The Cmax in data set [2] (setting [4]) came out at 359 ng/mL.

On to `O=C(O)c1ccc2nc(CN3CCC(c4cccc5c4O[C@@H](c4ccc(Cl)cc4F)CO5)CC3)n(C[C@@H]3CCO3)c2c1` [Example 4, 2-((4-((S)-3-(4-Chloro-2-fluorophenyl)-2,3-dihydrobenzo[b][1,4]dioxan-5-yl)piperidin-1-yl)methyl)-1-(((S)-oxetan-2-yl)methyl)-1H-benzo[d]imidazole-6-carboxylic acid], for which the IC50 at CYP2C19 (setting [5]) is more than 30 µM. Moreover, the IC50 on CYP2C19 (setting [6]) was more than 30 µM. In data set [1] (setting [3]), the “Apparent distribution volume Vz/F” value is 0.908 L/kg, the “Clearance CLz/F” value was 1.9 mL/min/kg, the AUC(0-t) came to 4010 ng·h/mL and the half-life was 5.4 h. In addition, in data set [1] (setting [3]), the Cmax was 1220 ng/mL. Besides, in data set [1] (setting [4]), the Vd/F was 0.713 L/kg, the AUC(0-t) was determined as 21400 ng·h/mL, the CL/F came to 1.6 mL/min/kg and the half-life is 5.3 h. Also, the Cmax in data set [1] (setting [4]) was determined as 4040 ng/mL. In data set [2] (intravenous injection, 1 mg/kg), the AUC(0-t) was determined as 1870 ng·h/mL, the half-life was 1.3 h, the “Apparent distribution volume Vz/F” value was 1.014 L/kg and the “Clearance CLz/F” value stood at 8.9 mL/min/kg. In data set [2] (setting [4]), the Vd/F is 4.01 L/kg, the AUC(0-t) is 2250 ng·h/mL, the CL/F is 14.8 mL/min/kg and the half-life was 3.1 h. In addition, the Cmax in data set [2] (setting [4]) stood at 797 ng/mL.

For `C[C@]1(c2ccc(Cl)cc2F)Oc2cccc(C3CCN(Cc4nc5ccc(C(=O)O)cc5n4C[C@@H]4CCO4)CC3)c2O1` [Positive compound 1, reference compound], the IC50 on CYP2C19 (setting [5]) was found to be 2.6 µM; on CYP2C19 (setting [6]), 6.4 µM. For the same compound, the IC50 shift at 30 min at CYP2C19 (probe (S)-mephenytoin, CYP2C19 (S)-mephenytoin site, read-out: IC50 shift fold) came out at 2.5.

(Values after patent US20230322756A1, “FUSED IMIDAZOLE DERIVATIVE, PREPARATION METHOD THEREFOR, AND MEDICAL USE THEREOF” (JIANGSU HENGRUI MEDICINE CO., LTD., priority 2020, published 2023).)
